The text below walks through data of ChEMBL document CHEMBL5154641, “Targeting transthyretin in Alzheimer's disease: Drug discovery of small-molecule chaperones as disease-modifying drug candidates for Alzheimer's disease” (Eur J Med Chem, 2021).

Assay [1] concerns the target Transthyretin (Homo sapiens) (UniProt P02766). The assay can be described thus: Displacement of [125I]-T4 from human recombinant TTR expressed in Escherichia coli BL21(DE3) Star by gamma spectrometric analysis. On the technique in general: In a radioligand displacement assay an active substance lowers the binding of a labelled ligand.
The nature of assay [2]: Binding affinity to wild type TTR/Amyloid beta (1 to 40 residues) binary complex (unknown origin) assessed as complex dissociation constant by isothermal titration calorimetry. Further details: species or system Homo sapiens.
The species named for assay [3] is Homo sapiens. The assay can be described thus: Binding affinity to wild type TTR/Amyloid beta (1 to 40 residues) binary complex (unknown origin) assessed as change in enthalpy binary by isothermal titration calorimetry. On the technique in general: ITC needs no label: the signal is the heat of the interaction.
Another assay relates to SH-SY5Y. The assay can be described thus: Neuroprotective activity against amyloid beta (1 to 42 residues)-induced cell injury in human SH-SY5Y cells assessed as reduction in caspase 3 level. Type of assay: functional, cell-based.
The species entered for assay [4] is Homo sapiens. The assay can be described thus: Binding affinity to wild type TTR/Amyloid beta (1 to 40 residues) binary complex (unknown origin) assessed as Gibbs free energy change for binary complex by isothermal titration calorimetry.
For assay [5], the species on record is Homo sapiens. The assay can be described thus: Binding affinity to wild type TTR/Amyloid beta (1 to 40 residues) binary complex (unknown origin) assessed as change in entropy for binary complex by isothermal titration calorimetry.

Activity calls are given as the source filed them. The calls are words filed in the database; no cut-off is given here.

For `CC/C(=C(/CC)c1ccc(O)cc1)c1ccc(O)cc1`, the result in assay [1] was Active.
By Kd is commonly meant the equilibrium constant for the complex coming apart. On to `O=C(O)c1cc(/N=N/c2ccc(O)c(C(=O)O)c2)ccc1O` [OLSALAZINE], for which the Kd in assay [2] worked out at 810 nM. Further, in the assay listed under Homo sapiens [3], the deltaH was -8.72 kcal/mol. The result in the assay on SH-SY5Y was Active. Further, in the assay listed under Homo sapiens [4], the deltaG is -8.7 kcal/mol. Besides, in the assay listed under Homo sapiens [5], the -TdeltaS was found to be 0.02 kcal/mol.
In the case of `Oc1c(I)cc(Cl)c2cccnc12`, in assay [1], the outcome was Active.
With `CCc1ccc(CCOc2ccc(CC3SC(=O)NC3=O)cc2)nc1` (stereo not drawn), in assay [1], the outcome was Active.
Take `O=C(O)c1ccc2nc(-c3cc(Cl)cc(Cl)c3)oc2c1`: the outcome in assay [1] was Active.
Still for that read-out and setting: to `O=C(O)c1cc(-c2ccc3ccccc3c2)cc(I)c1O` belongs “Active”; to `Cc1ccc(C(=O)c2cc(O)c(O)c([N+](=O)[O-])c2)cc1`, “Active”.
With `O=C(O)c1cc(-c2ccc(F)cc2F)cc(I)c1O`, the deltaH in the assay listed under Homo sapiens [3] was -1.54 kcal/mol. In addition, the result (in the assay on SH-SY5Y; in assay [1]) was Active. The deltaG in the assay listed under Homo sapiens [4] was -7.67 kcal/mol. Further, the -TdeltaS in the assay filed under Homo sapiens [5] was -6.13 kcal/mol.
Consider `CCCCN(CCCC)C[C@H](O)c1cc(Cl)cc2c1-c1ccc(Cl)cc1/C2=C/c1ccc(Cl)cc1`, for which the outcome in assay [1] was Active.
In the case of `Oc1c(I)cc(I)cc1I`, the outcome in assay [1] was Active.
Turning to `O=c1cc(-c2ccc(O)c(O)c2)oc2cc(O)cc(O)c12` [LUTEOLIN], in assay [2], the Kd stood at 1520 nM. Besides, the deltaH in the assay listed under Homo sapiens [3] was -0.53 kcal/mol. For the same molecule, the result (in the assay on SH-SY5Y; in assay [1]) was Active. In the assay listed under Homo sapiens [4], the deltaG was -7.93 kcal/mol. In addition, the -TdeltaS in the assay listed under Homo sapiens [5] amounted to 7.3 kcal/mol.
As for `COc1ccccc1Oc1ccc(N(Cc2cccnc2)S(=O)(=O)CC(F)(F)F)cc1`, the outcome in assay [1] was Active.
Turning to `C=Cc1cc2oc(-c3ccc(O)c(F)c3)nc2cc1O`, in assay [1], the outcome was Active.
On to `O=C(O)c1cc(/N=N/c2cccc([N+](=O)[O-])c2)ccc1O`, for which the result in assay [1] was Active.
In the case of `CC1=C(CC(=O)O)c2cc(F)ccc2/C1=C\c1ccc([S+](C)[O-])cc1` (stereo not drawn) [SULINDAC], the Kd in assay [2] amounted to 3420 nM. Besides, the deltaH in the assay listed under Homo sapiens [3] is -3.23 kcal/mol. In addition, in the assay filed under Homo sapiens [4], the deltaG is -8.15 kcal/mol. In addition, in the assay filed under Homo sapiens [5], the -TdeltaS is -4.92 kcal/mol.
Regarding `O=C(O)c1ccccc1Nc1cccc(C(F)(F)F)c1` [FLUFENAMIC ACID], the Kd in assay [2] was found to be 2340 nM. Also, the deltaH in the assay filed under Homo sapiens [3] was -3.66 kcal/mol. Also, in the assay with SH-SY5Y, the outcome was Active. Further, the deltaG in the assay listed under Homo sapiens [4] is -8.28 kcal/mol. In the assay listed under Homo sapiens [5], the -TdeltaS was 4.62 kcal/mol.
As to `O=C(O)c1cc(/N=N/c2cccc([N+](=O)[O-])c2)cc(I)c1O`, in assay [1], the outcome was Active.
For the molecule `O=C(O)CCNC(=O)CCNC(=O)c1cc(-c2ccc(F)cc2F)cc(I)c1O`, the result in assay [1] was Active.
